# Experimental data as given in patent publication US12509460B2 (Skyhawk Therapeutics, Inc., priority 2019, dated 2025).
# Like-named read-outs stand apart in the source and are kept apart here.
# Assays:
# [1] = test system: mHTT protein in GM04724 (CAG 70/20) Huntington's disease patient lymphoblast cells; test: mHTT protein assay, 2B7-MW1 assay via Mesoscale Discovery (MSD); assay type: cell-based, human
# How it was run: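 Signal from the 2B7-MW1 antibody pair on MSD, rising with polyQ length and smaller HTT fragments, measured mHTT after 48 h compound exposure (0.6 nM–10 μM) in GM04724 cells. A parallel replicate plate gave CellTiter Glo viability.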
# [2] = test system: MDR1-MDCK cell monolayers; test: Blood-brain-barrier (BBB) penetration potential via MDCK-MDR1 permeability assay
# MDR1 = test: as above; details: dog, MDCK-MDR1, pH 7.4, MDCK-MDR1: Efflux
# MDR1 (P-gp) = test: as above; details: dog; for Papp A→B at 120 min, 5 μM: MDCK-MDR1, pH 7.4, MDCK-MDR1: Papp A-B; for Papp B→A at 120 min, 5 μM: MDCK-MDR1, pH 7.4, MDCK-MDR1: Papp B-A
# [3] = test system: SMN FL and SMN Δ7 in spinal muscular atrophy (SMA) patient fibroblasts (GM03813, Coriell); test: Quantitative splicing assay (SMN), qPCR; assay type: cell-based, human; details: Homo sapiens, Fibroblast, 24 h, read-out: SMN2 Splicing FL EC50
# Procedure: Spinal muscular atrophy (SMA) patient fibroblasts (GM03813, Coriell) are plated in 96-well plates at 50,000 cells/well. […] Treated cells are lysed and cDNA synthesized using the Fast Advanced Cells-to-Ct kit (Thermofisher A35378) according to the manufacturer's instructions. 2 μL of each cDNA are used in qPCR reactions. […] Reactions are run in a Quant Studio 6 qPCR instrument with default settings.
# [4] = test system: SMN protein in spinal muscular atrophy (SMA) patient fibroblasts (GM03813, Coriell); test: SMN protein assay, Mesoscale Discovery (MSD); assay type: cell-based, human; details: for EC50: read-out: SMN2 protein EC50
# How it was run: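 Absolute SMN levels were quantified by MSD against an SMN protein standard curve (1 μg/ml to 19.5 pg/ml) run on each plate. Samples were lysates of GM03813 patient fibroblasts (7000 cells/well) treated 48 hours with compound doses from 2.5 μM down to 0.6 nM.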
# [5] = GM04724 Huntington's disease patient lymphoblasts
# [6] = SMA patient fibroblasts GM03813, 24 h, qPCR
# [7] = SMA patient fibroblasts GM03813, 48 hours, MSD
# [8] = GM04724 (CAG 70/20) Huntington's disease patient lymphoblasts
# [9] = SMA patient fibroblasts (GM03813)
# [10] = SMA patient fibroblasts (GM03813), 48 hours
SMILES,"EC50 [1, 5] [nM]",MDCK-MDR1: % Recov A-B ([2]; A-B direction) [%],MDCK-MDR1: % Recov B-A ([2]; B-A direction) [%],"efflux ratio at 120 min, 5 μM (MDR1; efflux ratio)","Papp A→B at 120 min, 5 μM (MDR1 (P-gp); A-B direction) [×10⁻⁶ cm/s]","Papp B→A at 120 min, 5 μM (MDR1 (P-gp); B-A direction) [×10⁻⁶ cm/s]","EC50 [3, 6] [nM]","EC50 [4, 7] [nM]","EC50 [1, 8] [nM]",MDCK-MDR1: % Recov A-B ([2]; A-B) [%],MDCK-MDR1: % Recov B-A ([2]; B-A) [%],"efflux ratio at 120 min, 5 μM (MDR1)","Papp A→B at 120 min, 5 μM (MDR1 (P-gp); A-B) [×10⁻⁶ cm/s]","Papp B→A at 120 min, 5 μM (MDR1 (P-gp); B-A) [×10⁻⁶ cm/s]","EC50 [3, 9] [nM]","EC50 [4, 10] [nM]","SMN2 protein EC50 [4, 7]","mHTT protein EC50 [1, 5]"
"CN(C)C(=O)c1cc2cc(O)c(-c3ccc(N(C)[C@@H]4C[C@H]5CC[C@H](N5)[C@@H]4F)nn3)cc2o1 [Compound 9A, 6-(6-(((1S,2S,3R,5R)-2-fluoro-8-azabicyclo[3.2.1]octan-3-yl)(methyl)amino)pyridazin-3-yl)-5-hydroxy-N,N-dimethylbenzofuran-2-carboxamide]",51 to 100,108,111,80,0.76,61.1,16 to 50,0.01 to 15,–,–,–,–,–,–,–,–,–,–
"CN(c1ccc(-c2cc3ncn(C)c(=O)c3cc2O)nn1)[C@H]1C[C@@H]2CC[C@H]([C@H]1F)N2C [Compound 101B, 7-(6-(((1R,2R,3S,5S)-2-fluoro-8-methyl-8-azabicyclo[3.2.1]octan-3-yl)(methyl)amino)pyridazin-3-yl)-6-hydroxy-3-methylquinazolin-4(3H)-one]",–,–,–,–,–,–,–,–,51 to 100,118,119,24,2.41,59.1,51 to 100,0.01 to 15,–,–
"CN(c1ccc(-c2ccc(-n3ccnn3)cc2O)nn1)[C@@H]1C[C@H]2CC[C@H](N2)[C@@H]1F [Compound 61A, 2-(6-(((1S,2S,3R,5R)-2-fluoro-8-azabicyclo[3.2.1]octan-3-yl)(methyl)amino)pyridazin-3-yl)-5-(1H-1,2,3-triazol-1-yl)phenol]",16 to 50,91,88,14,4.29,60.3,16 to 50,0.01 to 15,–,–,–,–,–,–,–,–,–,–
"CN(c1ccc(-c2cc3oc(=O)n(C)c3cc2O)nn1)[C@H]1C[C@@H]2CC[C@@H](N2)[C@H]1F (single isomer, unassigned) [Compound 79B]",51 to 100,90,99,16,2.69,42.9,101 to 500,16 to 50,–,–,–,–,–,–,–,–,–,–
"CN(c1ccc(-c2cc3nccnc3cc2O)nn1)[C@@H]1C[C@H]2CC[C@H](N2)[C@@H]1F [Compound 88A, 7-(6-(((1S,2S,3R,5R)-2-fluoro-8-azabicyclo[3.2.1]octan-3-yl)(methyl)amino)pyridazin-3-yl)quinoxalin-6-ol]",51 to 100,85,99,9,4.84,45.7,101 to 500,16 to 50,–,–,–,–,–,–,–,–,–,–
"CN(c1ccc(-c2ccc(-c3ccccn3)cc2O)nn1)[C@@H]1C[C@H]2CCC[C@H](N2)[C@@H]1F [Compound 23A, 2-(6-(((1S,2S,3R,5R)-2-fluoro-9-azabicyclo[3.3.1]nonan-3-yl)(methyl)amino)pyridazin-3-yl)-5-(pyridin-2-yl)phenol]",51 to 100,64,83,10,3.33,34.9,51 to 100,16 to 50,–,–,–,–,–,–,–,–,–,–
"CN(c1ccc(-c2cc3oc(C(=O)N4CCC4)cc3cc2O)nn1)[C@@H]1C[C@H]2CC[C@H](N2)[C@@H]1F [Compound 112A, azetidin-1-yl(6-(6-(((1S,2S,3R,5R)-2-fluoro-8-azabicyclo[3.2.1]octan-3-yl)(methyl)amino)pyridazin-3-yl)-5-hydroxybenzofuran-2-yl)methanone]",–,–,–,–,–,–,–,–,51 to 100,95,78,74,0.6,43.8,51 to 100,0.01 to 15,–,–
"CN(c1ccc(-c2cc3c(=O)n(C)cnc3cc2O)nn1)[C@H]1C[C@@H]2CC[C@H]([C@H]1F)N2C [Compound 102B, 6-(6-(((1R,2R,3S,5S)-2-fluoro-8-methyl-8-azabicyclo[3.2.1]octan-3-yl)(methyl)amino)pyridazin-3-yl)-7-hydroxy-3-methylquinazolin-4(3H)-one]",–,–,–,–,–,–,–,–,51 to 100,91,91,30,1.63,48.1,101 to 500,16 to 50,–,–
"CN(c1ccc(-c2ccc(-n3cnc(C#N)c3)cc2O)nn1)[C@@H]1C[C@H]2CC[C@H](N2)[C@@H]1F [Compound 69A, 1-(4-(6-(((1S,2S,3R,5R)-2-fluoro-8-azabicyclo[3.2.1]octan-3-yl)(methyl)amino)pyridazin-3-yl)-3-hydroxyphenyl)-1H-imidazole-4-carbonitrile]",101 to 500,87,86,29,1.36,39.4,51 to 100,16 to 50,–,–,–,–,–,–,–,–,–,–
"Cc1ccc(-c2ccc(-c3ccc(N(C)[C@@H]4C[C@H]5CCC[C@H](N5)[C@@H]4F)nn3)c(O)c2)nn1 [Compound 27A, 2-(6-(((1S,2S,3R,5R)-2-fluoro-9-azabicyclo[3.3.1]nonan-3-yl)(methyl)amino)pyridazin-3-yl)-5-(6-methylpyridazin-3-yl)phenol]",101 to 500,90,86,43,1.08,46.6,51 to 100,0.01 to 15,–,–,–,–,–,–,–,–,–,–
"CN(c1ccc(-c2ccc(C#N)cc2O)nn1)[C@@H]1C[C@H]2CC[C@H](N2)[C@@H]1F [Compound 38A, 4-(6-(((1S,2S,3R,5R)-2-fluoro-8-azabicyclo[3.2.1]octan-3-yl)(methyl)amino)pyridazin-3-yl)-3-hydroxybenzonitrile]",101 to 500,83,85,3,13,39.2,16 to 50,–,–,–,–,–,–,–,–,–,E (501 ≤ E ≤ 10.000),–
"COc1cn(-c2ccc(-c3ccc(N(C)[C@@H]4C[C@H]5CC(F)(F)[C@@H](C4)N5)nn3)c(O)c2)cn1 [Compound 19A, 2-(6-(((1S,3R,5R)-6,6-difluoro-8-azabicyclo[3.2.1]octan-3-yl)(methyl)amino)pyridazin-3-yl)-5-(4-methoxy-1H-imidazol-1-yl)phenol]",51 to 100,81,94,6,10.1,56.6,51 to 100,0.01 to 15,–,–,–,–,–,–,–,–,–,–
"CNC(=O)c1ccc(-c2ccc(N(C)[C@H]3C[C@@H]4CC[C@@H](N4)[C@H]3F)nn2)c(O)c1 (single isomer, unassigned) [Compound 77B]",101 to 500,102,106,144,0.28,40.3,51 to 100,101 to 500,–,–,–,–,–,–,–,–,–,–
"CN(c1ccc(-c2cc3ncn(CC(F)(F)F)c(=O)c3cc2O)nn1)[C@H]1C[C@@H]2CCC[C@@H](N2)[C@H]1F [Compound 58B, 7-(6-(((1R,2R,3S,5S)-2-fluoro-9-azabicyclo[3.3.1]nonan-3-yl)(methyl)amino)pyridazin-3-yl)-6-hydroxy-3-(2,2,2-trifluoroethyl)quinazolin-4(3H)-one]",–,76,85,126,0.43,53.9,0.01 to 15,0.01 to 15,–,–,–,–,–,–,–,–,–,E (501 ≤ E ≤ 10.000)
